Assay results reported in patent US5453518A, “Flavone derivatives” (Recordati S.A., Chemical and Pharmaceutical Company, priority 1992, dated 1995).
pIC50: −log10 of the molar value. Counter-ions that a name gives are not always drawn. Like-named read-outs stand apart in the source and are kept apart here.

Tests used:
[1] = tested on: rat bladder (K^+ -induced contractions); test: Inhibition of K^+ -induced rat bladder contractions; parameters: species or system rat (male Sprague Dawley); conditions: for pIC50: 0.5 h, KCl 80 mM, 30 min after drug, isolated rat bladder; for activity of N-oxide compounds: in words, based on the Table
Description: Female Albino Swiss mice [Crl: CD-1 (ICR) BR] with a body weight of 20-30 g and male Sprague Dawley rats [Crl: CD° BR] with a body weight of 200-300 g, from the Charles River Farm, Italy, were used for the trials. The animals were housed with free access to food and water and kept on a forced light-darkness cycle at 22°-24° C. until the day of the trials. Male rats were killed by a blow on their heads and their lower abdomens were opened along the midlines. Their urinary bladders were removed by a transverse dissection above the trigone and cut into two fragments (20-30 mm long, 1-2 mm wide). Each fragment was suspended in an isolated organ bath containing 10 ml of a normal Tyrode solution (composition in mM: NaCl 137, KCl 2.68, MgCl2 1.11, CaCl2 1.8, NaH2 PO4 0.41, NaHCO3 11.9, glucose 5.55) and connected, under a steady 1 g load, to an isometric transducer (DY-1, Basile). The solution was gassed with a mixture of 95% O2 and 5% CO2 and heated at 37° C. After a 60 minute equilibration the tension responses to a single KCl dose (Bath concentration=80 mM) inducing phasic and tonic contractions were measured under isometric conditions at 30 minute intervals. After recording one or more reproducible responses, a solution of the test drug was added to the bath (final concentration from 10^-4 to 10^-9 M) and 30 minutes later a new contraction was induced. The experimental groups were made up of at least 2 preparations from different animals for each drug concentration tested. The IC50 values of the inhibition of the agonist-induced contractions were evaluated by linear regression analysis.

[2] = Acute toxicity in mice (LD50); assay type: in vivo; conditions: mouse, in vivo, mice, death rate 7 days after administration
Description: (§1) Female Albino Swiss mice [Crl: CD-1 (ICR) BR] with a body weight of 20-30 g and male Sprague Dawley rats [Crl: CD° BR] with a body weight of 200-300 g, from the Charles River Farm, Italy, were used for the trials. The animals were housed with free access to food and water and kept on a forced light-darkness cycle at 22°-24° C. until the day of the trials.
(§2) The acute toxicity was evaluated in female Albino Swiss mice after intraperitoneal or oral administrations. Four logarithmic scaled doses of the compounds were dissolved or suspended in 0.5% aqueous Methocel and administered at a volume of 10 ml/kg to groups of 4 mice/dose. The death rate was recorded 7 days after the administration.
(§3) The LD50 values and the relevant confidence limits were calculated according to the method of Weil (Biometrics, 8, 249, 1952).

[3] = Stability at 37° C. and physiological pH (phosphate buffer, pH=7.4); assay type: physicochemical; conditions: pH 7.4 phosphate buffer, read-out: Stability at pH 7.4, % Unchanged after 3 h
Excerpt: The stability of the other compounds of the invention was not investigated as they are known to be less subject to degradation than the esters.

Female Albino Swiss mice = test: Acute toxicity in mice (LD50); assay type: in vivo; conditions: in words; LD50/IC50 compared with Flavoxate
Description: as §1, §2, §3

[4] = phasic contraction, read-out: IC50, inhibition of K^+ -induced rat bladder contractions, Phasic
[5] = tonic contraction, read-out: IC50, inhibition of K^+ -induced rat bladder contractions, Tonic
[6] = ip, i.p., read-out: Mice LD50 i.p.
[7] = po, p.o., read-out: Mice LD50 p.o.

SMILES	pIC50 [1, 4]	pIC50 [1, 5]	activity of N-oxide compounds [1]	LD50 at 168 h [2, 6] [mg/kg]	LD50 at 168 h [2, 7] [mg/kg]	remaining at 3 h [3] [%]	relative therapeutic index (LD50/IC50) versus Flavoxate (Female Albino Swiss mice)
COc1ccc(C(C#N)(CCC[N+](C)([O-])CCCOC(=O)c2cccc3c(=O)c(C)c(-c4ccccc4)oc23)C(C)C)cc1OC (stereo not shown) [Example 5, 8-{3-[4-Cyano-4-(3,4-dimethoxyphenyl)-N,5-dimethyl-N-oxohexylamino]propoxycarbonyl}-3-methyl-4-oxo-2-phenyl-4H-1-benzopyran hydrochloride x 0.25 H2 O]	5.00	5.66	do not appear to be very active	> 1000	> 3000		
COc1ccc(C(C#N)(CCCN(C)CC(=O)NCc2cccc3c(=O)c(C)c(-c4ccccc4)oc23)C(C)C)cc1OC.Cl.O.O (stereo not shown) [Example 16, 8-{2-[4-Cyano-4-(3,4-dimethoxyphenyl)-N,5-dimethylhexylamino]-1-oxoethylaminomethyl}-3-methyl-4-oxo-2-phenyl-4H -1-benzopyran hydrochloride dihydrate]	6.30	6.05		440	1280		
COc1ccc(C(C#N)(CCCN(C)CCNC(=O)c2cccc3c(=O)c(C)c(-c4ccccc4)oc23)C(C)C)cc1OC (stereo not shown) [Example 13, 8-{2-[4-Cyano-4-(3,4-dimethoxyphenyl)-N,5-dimethylhexylamino]ethylcarbamoyl}-3-methyl-4-oxo-2-phenyl-4H-1-benzopyran hydrochloride hemihydrate]	6.52	7.00		422			
COc1ccc(C(C#N)(CCCN(C)CCCOC(=O)c2cccc3c(=O)c(C)c(-c4ccccc4)oc23)C(C)C)cc1OC.Cl (stereo not shown) [Example 4, 8-{3-[4-Cyano-4-(3,4-dimethoxyphenyl)-N,5-dimethylhexylamino]propoxycarbonyl}-3-methyl-4-oxo-2-phenyl-4H-1-benzopyran hydrochloride]	6.30	5.89		> 1000	> 3000	100	
COc1ccc(CCN(C)CCCNC(=O)c2cccc3c(=O)c(C)c(-c4ccccc4)oc23)cc1OC [Example 12, 8-{3-[2-(3,4-Dimethoxyphenyl)-N-methylethylamino]propylcarbamoyl}-3-methyl-4-oxo-2-phenyl-4H -1-benzopyran hydrochloride 0.3-hydrate]	5.66	5.85		129	716		
COc1ccc(CCN(C)CCCOC(=O)c2cccc3c(=O)c(C)c(-c4ccccc4)oc23)cc1OC.Cl [Example 2, 8-{3-[2-(3,4-Dimethoxyphenyl)-N-methylethylamino]propoxycarbonyl}-3-methyl-4-oxo-2-phenyl-4H-1-benzopyran hydrochloride]	6.00	6.30		773	2260		
COc1ccc(C(C#N)(CCCN(C)CCCNC(=O)c2cccc3c(=O)c(C)c(-c4ccccc4)oc23)C(C)C)cc1OC (stereo not shown) [Example 11, 8-{3-[4-Cyano-4-(3,4-dimethoxyphenyl)-N,5-dimethylhexylamino]propylcarbamoyl}-3-methyl-4-oxo-2-phenyl-4H-1-benzopyran hydrochloride hemihydrate]	6.22	6.30		224	400		considerably safer than Flavoxate
COc1ccc(C(C#N)(CCCN(C)CCSCc2cccc3c(=O)c(C)c(-c4ccccc4)oc23)C(C)C)cc1OC.Cl (stereo not shown) [Example 19, 8-{2-[4-Cyano-4-(3,4-dimethoxyphenyl)-5,N-dimethylhexylamino]ethylthiomethyl}-3-methyl-4-oxo-2-phenyl-4H-1-benzopyran hydrochloride]	6.30	5.89		> 1000	> 3000		
COc1ccc(C(C#N)(CCCN(C)CC(=O)N(C)Cc2cccc3c(=O)c(C)c(-c4ccccc4)oc23)C(C)C)cc1OC.Cl.O (stereo not shown) [Example 17, 8-{2-[4-Cyano-4-(3,4-dimethoxyphenyl)-N,5-dimethylhexylamino]-N-methyl-1-oxo-ethylaminomethyl}-3-methyl-4-oxo-2-phenyl-4H-1-benzopyran hydrochloride hydrate]	6.70	6.40		334	1710		
COc1ccc(C(C#N)(CCCN(C)CC(=O)c2cccc3c(=O)c(C)c(-c4ccccc4)oc23)C(C)C)cc1OC.Cl.O (stereo not shown) [Example 1, 8-{2-[4-Cyano-4-(3,4-dimethoxyphenyl)-5,N-dimethylhexylamino]-1-oxoethyl}-3-methyl-4-oxo-2-phenyl-4H-1-benzopyran hydrochloride hydrate]	5.00	< 5.00		475	> 3000		
COc1ccc(C(C#N)(CCCN(C)CCOCc2cccc3c(=O)c(C)c(-c4ccccc4)oc23)C(C)C)cc1OC.Cl.O (stereo not shown) [Example 18, 8-{2-[4-Cyano-4-(3,4-dimethoxyphenyl)-5,N-dimethylhexylamino]ethoxymethyl}-3-methyl-4-oxo-2-phenyl-4H-1-benzopyran hydrochloride hydrate]	6.52	6.40		334	974		
CCN(CCCOC(=O)c1cccc2c(=O)c(C)c(-c3ccccc3)oc12)C(C)Cc1ccc(OC)cc1.Cl (stereo not shown) [Example 6, 8-{3-[N-Ethyl-3-(4-methoxyphenyl)-2-propylamino]propoxycarbonyl}-3-methyl-4-oxo-2-phenyl-4H-1-benzopyran hydrochloride]	5.77	5.38		> 1000	> 3000	99	
COc1ccc(C(C#N)(CCCN(C)CCN(C)C(=O)c2cccc3c(=O)c(C)c(-c4ccccc4)oc23)C(C)C)cc1OC.Cl.O (stereo not shown) [Example 14, 8-{2-[4-Cyano-4-(3,4-dimethoxyphenyl)-N,5-dimethylhexylamino]-N-methylethylcarbamoyl}-3-methyl-4-oxo-2-phenyl-4H-1-benzopyran hydrochloride hydrate]	7.00	7.00		159	346		considerably safer than Flavoxate
COc1ccc(CC[N+](C)([O-])CCCOC(=O)c2cccc3c(=O)c(C)c(-c4ccccc4)oc23)cc1OC (stereo not shown) [Example 3, 8-{3-[2-(3,4-Dimethoxyphenyl)-N-methyl-N-oxoethylamino]-propoxycarbonyl}-3-methyl-4-oxo-2-phenyl-4H-1-benzopyran hydrochloride]	< 5.00	< 5.00	do not appear to be very active	> 1000	> 3000		
COc1ccc(C(C#N)(CCCN(C)CCS(=O)(=O)Cc2cccc3c(=O)c(C)c(-c4ccccc4)oc23)C(C)C)cc1OC (stereo not shown) [Example 20, 8-{2-[4-Cyano-4-(3,4-dimethoxyphenyl)-5,N-dimethylhexylamino]ethylsulphonylmethyl}-3-methyl-4-oxo-2-phenyl-4H-1-benzopyran hydrochloride hemihydrate]	6.30	6.30		> 1000	> 3000		
COc1ccc(CC2c3cc(OC)c(OC)cc3CCN2CCCOC(=O)c2cccc3c(=O)c(C)c(-c4ccccc4)oc23)cc1OC (stereo not shown) [Example 7, 8-{3-[1-(3,4-Dimethoxybenzyl)-6,7-dimethoxy-2H-1,2,3,4-tetrahydro-2-isoquinolinyl]propoxycarbonyl}-3-methyl-4-oxo-2-phenyl-4H-1-benzopyran hydrochloride]	5.85	6.05		> 1000	> 3000	99	
